Data on 14 molecules can be found in patent US10358427B2, “Modulators of indoleamine 2,3-dioxygenase” (GLAXOSMITHKLINE INTELLECTUAL PROPERTY DEVELOPMENT LIMITED, priority 2015, dated 2019).

Structures are written as SMILES. Counter-ions that a name gives are not always drawn.

The target in experiment [1] is T1, indoleamine 2, 3-dioxygenase (IDO1) (Homo sapiens, UniProt P14902). Kind of experiment: HeLa IDOi assay (kynurenine detection via mass spectrometry). Format: cell-based. Details: human epithelial HeLa cells (CCL-2; host or cells: HeLa cells stimulated with human IFN-γ. The settings on record: human epithelial HeLa cells stimulated with IFN-γ; kynurenine by mass spectrometry; 2 days incubation. On the procedure:
(§1) Compounds of the present invention were tested via high-throughput cellular assays utilizing detection of kynurenine via mass spectrometry and cytotoxicity as end-points. For the mass spectrometry and cytotoxicity assays, human epithelial HeLa cells (CCL-2; ATCC®, Manassas, Va.) were stimulated with human interferon-γ (IFN-γ) (Sigma-Aldrich Corporation, St. Louis, Mo.) to induce the expression of indoleamine 2, 3-dioxygenase (IDO1). Compounds with IDO1 inhibitory properties decreased the amount of kynurenine produced by the cells via the tryptophan catabolic pathway. Cellular toxicity due to the effect of compound treatment was measured using CellTiter-Glo® reagent (CTG) (Promega Corporation, Madison, Wis.), which is based on luminescent detection of ATP, an indicator of metabolically active cells.
(§2) In preparation for the assays, test compounds were serially diluted 3-fold in DMSO from a typical top concentration of 5 mM and plated at 0.5 μL in 384-well, polystyrene, clear bottom, tissue culture treated plates with lids (Greiner Bio-One, Kremsmünster, Austria) to generate 11-point dose response curves. Low control wells (0% kynurenine or 100% cytotoxicity) contained either 0.5 μL of DMSO in the presence of unstimulated (−IFN-γ) HeLa cells for the mass spectrometry assay or 0.5 μL of DMSO in the absence of cells for the cytotoxicity assay, and high control wells (100% kynurenine or 0% cytotoxicity) contained 0.5 μL of DMSO in the presence of stimulated (+IFN-γ) HeLa cells for both the mass spectrometry and cytotoxicity assays.
Frozen stocks of HeLa cells were washed and recovered in DMEM high glucose medium with HEPES (Thermo Fisher Scientific, Inc., Waltham, Mass.) supplemented with 10% v/v certified fetal bovine serum (FBS) (Thermo Fisher Scientific, Inc., Waltham, Mass.), and 1× penicillin-streptomycin antibiotic solution (Thermo Fisher Scientific, Inc., Waltham, Mass.). The cells were diluted to 100,000 cells/mL in the supplemented DMEM medium. 50 μL of either the cell suspension, for the mass spectrometry assay, or medium alone, for the cytotoxicity assay, were added to the low control wells, on the previously prepared 384-well compound plates, resulting in 5,000 cells/well or 0 cells/well respectively. IFN-γ was added to the remaining cell suspension at a final concentration of 10 nM, and 50 μL of the stimulated cells were added to all remaining wells on the 384-well compound plates. The plates, with lids, were then placed in a 37° C., 5% CO2 humidified incubator for 2 days.
(§3) Following incubation, the 384-well plates were removed from the incubator and allowed to equilibrate to room temperature for 30 minutes. For the cytotoxicity assay, CellTiter-Glo® was prepared according to the manufacturer's instructions, and 10 μL were added to each plate well. After a twenty minute incubation at room temperature, luminescence was read on an EnVision® Multilabel Reader (PerkinElmer Inc., Waltham, Mass.). For the mass spectrometry assay, 10 μL of supernatant from each well of the compound-treated plates were added to 40 μL of acetonitrile, containing 10 μM of an internal standard for normalization, in 384-well, polypropylene, V-bottom plates (Greiner Bio-One, Kremsmünster, Austria) to extract the organic analytes. Following centrifugation at 2000 rpm for 10 minutes, 10 μL from each well of the acetonitrile extraction plates were added to 90 μL of sterile, distilled H2O in 384-well, polypropylene, V-bottom plates for analysis of kynurenine and the internal standard on the RapidFire 300 (Agilent Technologies, Santa Clara, Calif.) and 4000 QTRAP MS (SCIEX, Framingham, Mass.). MS data were integrated using Agilent Technologies' RapidFire Integrator software, and data were normalized for analysis as a ratio of kynurenine to the internal standard. […]

Experiment [2] has as its target T1, indoleamine 2, 3-dioxygenase (IDO1). Kind of experiment: PBMC IDOi assay (kynurenine detection via mass spectrometry). It counts as cell-based. The settings on record: human PBMC stimulated with IFN-γ and LPS; kynurenine by mass spectrometry; 2 days incubation. On the procedure: as §1, with “peripheral blood mononuclear” for “epithelial HeLa”, “(PBMC) (PB003F; AlICells®, Alameda, Calif.)” for “(CCL-2; ATCC®, Manassas, Va.)”, “Mo.) and lipopolysaccharide from Salmonella minnesota (LPS) (Invivogen, San Diego, Calif.)” for “Mo.)”
as §2, with “(−IFN-γ/−LPS) PBMCs” for “(−IFN-γ) HeLa cells”, “(+IFN-γ/+LPS) PBMCs” for “(+IFN-γ) HeLa cells”
Frozen stocks of PBMCs were washed and recovered in RPMI 1640 medium (Thermo Fisher Scientific, Inc., Waltham, Mass.) supplemented with 10% v/v heat-inactivated fetal bovine serum (FBS) (Thermo Fisher Scientific, Inc., Waltham, Mass.), and 1× penicillin-streptomycin antibiotic solution (Thermo Fisher Scientific, Inc., Waltham, Mass.). The cells were diluted to 1,000,000 cells/mL in the supplemented RPMI 1640 medium. 50 μL of either the cell suspension, for the mass spectrometry assay, or medium alone, for the cytotoxicity assay, were added to the low control wells, on the previously prepared 384-well compound plates, resulting in 50,000 cells/well or 0 cells/well respectively. IFN-γ and LPS were added to the remaining cell suspension at final concentrations of 100 ng/ml and 50 ng/ml respectively, and 50 μL of the stimulated cells were added to all remaining wells on the 384-well compound plates. The plates, with lids, were then placed in a 37° C., 5% CO2 humidified incubator for 2 days.
as §3, with “and 40” for “and 10”

T1 sequence (P14902 whole entry): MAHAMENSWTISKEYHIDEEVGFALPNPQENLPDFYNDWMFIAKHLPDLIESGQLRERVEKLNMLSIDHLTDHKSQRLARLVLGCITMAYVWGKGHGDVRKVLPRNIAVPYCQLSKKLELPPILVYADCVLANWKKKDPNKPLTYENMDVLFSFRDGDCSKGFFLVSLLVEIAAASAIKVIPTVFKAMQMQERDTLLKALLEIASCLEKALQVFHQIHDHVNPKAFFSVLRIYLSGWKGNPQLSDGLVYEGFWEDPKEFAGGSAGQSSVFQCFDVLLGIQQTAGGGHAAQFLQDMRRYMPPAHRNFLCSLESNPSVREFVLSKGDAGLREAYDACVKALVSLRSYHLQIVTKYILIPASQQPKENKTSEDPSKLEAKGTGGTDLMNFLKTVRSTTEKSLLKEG

As to `CC(C)CN(c1ccc([C@H]2C[C@H]2C(=O)O)cc1Nc1nc2ccccc2o1)C1CCCCC1` (relative stereo) [Example 1, cis-2-(3-(Benzo[d]oxazol-2-ylamino)-4-(cyclohexyl(isobutyl)amino)phenyl)cyclopropanecarboxylic acid], it took 100 nM to reach a half-maximal effect in experiment [1] (EC50).

On to `CC(C)CN(c1ccc([C@H]2C[C@H]2C(=O)O)cc1Nc1nc2ccccc2s1)C1CCCCC1` (relative stereo) [Example 3, cis-2-(3-(Benzo[d]thiazol-2-ylamino)-4-(cyclohexyl(isobutyl)amino)phenyl)cyclopropanecarboxylic acid], for which it took 15.8 nM to reach a half-maximal effect in experiment [1] (EC50). `CC(C)CN(c1ccc([C@H]2C[C@H]2C(=O)O)cc1Nc1nc(Cl)ns1)C1CCCCC1` (relative stereo) [Example 4, cis-2-(3-((3-Chloro-1,2,4-thiadiazol-5-yl)amino)-4-(cyclohexyl(isobutyl)amino)phenyl)cyclopropanecarboxylic acid]: the EC50 (as a rule, the concentration needed to bring the measured effect to its halfway point) in experiment [2] is 1.26 nM; in experiment [1], 10 nM. `CC(C)CN(c1ccc([C@H]2C[C@H]2C(=O)O)cc1Nc1nc(-c2ccccc2)co1)C1CCCCC1` (relative stereo) [Example 5, cis-2-(4-(Cyclohexyl(isobutyl)amino)-3-((4-phenyloxazol-2-yl)amino)phenyl)cyclopropanecarboxylic acid] showed an EC50 in experiment [1] of 398 nM. With `CC(C)CN(c1ccc([C@H]2C[C@H]2C(=O)O)cc1Nc1nc(C(F)(F)F)ns1)C1CCCCC1` (relative stereo) [Example 6, cis-2-(4-(Cyclohexyl(isobutyl)amino)-3-((3-(trifluoromethyl)-1,2,4-thiadiazol-5-yl)amino)phenyl)cyclopropanecarboxylic acid, 2,2,2-trifluoroacetic acid], the figures for the EC50 in experiment [2] and in experiment [1] were 1.26 nM and 10 nM, respectively. Consider `CC(C)CN(c1ccc(C2CC2C(=O)O)cc1Nc1nc2ccccc2[nH]1)C1CCCCC1` (stereo not drawn) [Example 2, cis-2-(3-((1H-Benzo[d]imidazol-2-yl)amino)-4-(cyclohexyl(isobutyl)amino)phenyl)cyclopropanecarboxylic acid], for which the EC50 in experiment [1] is 5.01 nM. As to `CC(C)CN(c1ccc(-c2ccccc2C(=O)O)cc1Nc1nc2ccccc2o1)C1CCCCC1` [Example 7, 3′-(Benzo[d]oxazol-2-ylamino)-4′-(cyclohexyl(isobutyl)amino)-[1,1′-biphenyl]-2-carboxylic acid], the EC50 in experiment [2] is 39.8 nM; in experiment [1], 79.4 nM. Turning to `CC(C)CN(c1ccc(-c2ccccc2C(=O)O)cc1Nc1nc2ccccc2[nH]1)C1CCCCC1` [Example 8, 3′-((1H-Benzo[d]imidazol-2-yl)amino)-4′-(cyclohexyl(isobutyl)amino)-[1,1′-biphenyl]-2-carboxylic acid], the EC50 in experiment [1] was 7.94 nM. `CC(C)CN(c1ccc(-c2ccccc2C(=O)O)cc1Nc1nc(Cl)ns1)C1CCCCC1` [Example 9, 3′-((3-Chloro-1,2,4-thiadiazol-5-yl)amino)-4′-(cyclohexyl(isobutyl)amino)-[1,1′-biphenyl]-2-carboxylic acid]: the EC50 in experiment [2] was 2.51 nM; in experiment [1], 10 nM. `CC(C)CN(c1ccc(-c2ccccc2-c2nnn[nH]2)cc1Nc1nc(Cl)ns1)C1CCCCC1` [Example 10, N^3-(3-Chloro-1,2,4-thiadiazol-5-yl)-N^4-cyclohexyl-N^4-isobutyl-2′-(1H-tetrazol-5-yl)-[1,1′-biphenyl]-3,4-diamine] had an EC50 in experiment [1] of 12.6 nM. Turning to `CC(C)CN(c1ccc(-c2ccccc2-c2nnn[nH]2)cc1Nc1nc2ccccc2o1)C1CCCCC1` [Example 11, N^3-(Benzo[d]oxazol-2-yl)-N^4-cyclohexyl-N^4-isobutyl-2′-(1H-tetrazol-5-yl)-[1,1′-biphenyl]-3,4-diamine], the EC50 in experiment [2] was 15.8 nM; in experiment [1], 25.1 nM. For `Cc1cc(Nc2cc(-c3ccccc3-c3nn[nH]n3)ccc2N(CC(C)C)CC(C)C)no1` [Example 12, N^4,N^4-diisobutyl-N^3-(5-methylisoxazol-3-yl)-2′-(2H-tetrazol-5-yl)-[1,1′-biphenyl]-3,4-diamine], the EC50 in experiment [2] is 39.8 nM; in experiment [1] it was 158 nM. In the same order, the values of `C/C=C/Cc1cc(-c2ccccc2-c2nnn[nH]2)cc(Nc2nc3ccccc3o2)c1OCCC` [Example 13, (E)-N-(5-(But-2-en-1-yl)-4-propoxy-2′-(1H-tetrazol-5-yl)-[1,1′-biphenyl]-3-yl)benzo[d]oxazol-2-amine, Trifluoroacetic acid Salt] are 7.94 nM and 3.98 nM. As for `C/C=C/Cc1cc(-c2ccccc2-c2nnn[nH]2)cc(Nc2nc(Cl)ns2)c1OCCC` [Example 15, (E)-N-(5-(But-2-en-1-yl)-4-propoxy-2′-(1H-tetrazol-5-yl)-[1,1′-biphenyl]-3-yl)-3-chloro-1,2,4-thiadiazol-5-amine, Trifluoroacetic acid Salt], the EC50 in experiment [1] was 126 nM.
